Measurements taken from BindingDB's records for doi:10.1016/j.chembiol.2010.02.007 (Harvard Medical School, 2010).

What was measured:
Assay in all cases: In Vitro Activity Kinase Assay
[1] = target: Vascular endothelial growth factor receptor 2 (Homo sapiens, UniProt P35968)
Protocol: (§1) In vitro kinase assay profiled against a panel of different kinase binding assay using Ambit kinomeScan technology. Biochemical IC50 values were determined using the Z'-lyte assays format from Invitrogen.

[2] = target: Tyrosine-protein kinase Blk (Homo sapiens, UniProt P51451)
Protocol: as §1

[3] = target: Fibroblast growth factor receptor 3 (Homo sapiens, UniProt P22607)
Chain of Fibroblast growth factor receptor 3 (P22607 whole entry): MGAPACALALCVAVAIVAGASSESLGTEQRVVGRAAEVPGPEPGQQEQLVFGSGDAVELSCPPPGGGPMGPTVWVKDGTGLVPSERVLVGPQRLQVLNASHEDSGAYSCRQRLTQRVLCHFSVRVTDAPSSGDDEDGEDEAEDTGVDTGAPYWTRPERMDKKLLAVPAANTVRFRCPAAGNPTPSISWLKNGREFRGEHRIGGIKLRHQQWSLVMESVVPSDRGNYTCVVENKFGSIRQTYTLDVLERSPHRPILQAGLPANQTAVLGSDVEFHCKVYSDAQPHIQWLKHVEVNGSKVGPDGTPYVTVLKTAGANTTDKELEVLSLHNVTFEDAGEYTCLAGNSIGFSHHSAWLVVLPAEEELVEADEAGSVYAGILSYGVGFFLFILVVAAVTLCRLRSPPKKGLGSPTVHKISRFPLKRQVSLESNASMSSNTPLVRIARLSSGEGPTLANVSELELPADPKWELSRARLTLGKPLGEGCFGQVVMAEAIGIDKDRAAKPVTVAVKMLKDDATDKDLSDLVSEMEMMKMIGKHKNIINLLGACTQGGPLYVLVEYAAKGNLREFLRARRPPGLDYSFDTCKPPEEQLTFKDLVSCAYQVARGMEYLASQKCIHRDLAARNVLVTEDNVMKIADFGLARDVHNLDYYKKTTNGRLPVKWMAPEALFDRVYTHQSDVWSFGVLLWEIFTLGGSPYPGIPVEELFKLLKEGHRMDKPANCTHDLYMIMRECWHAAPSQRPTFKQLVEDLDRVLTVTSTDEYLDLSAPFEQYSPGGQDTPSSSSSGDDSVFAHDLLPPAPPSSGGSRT
Protocol: as §1

[4] = target: Hepatocyte growth factor receptor (Homo sapiens, UniProt P08581)
Protocol: as §1

[5] = target: Mitogen-activated protein kinase 7 (Homo sapiens, UniProt Q13164)
Chain of Mitogen-activated protein kinase 7 (Q13164 whole entry): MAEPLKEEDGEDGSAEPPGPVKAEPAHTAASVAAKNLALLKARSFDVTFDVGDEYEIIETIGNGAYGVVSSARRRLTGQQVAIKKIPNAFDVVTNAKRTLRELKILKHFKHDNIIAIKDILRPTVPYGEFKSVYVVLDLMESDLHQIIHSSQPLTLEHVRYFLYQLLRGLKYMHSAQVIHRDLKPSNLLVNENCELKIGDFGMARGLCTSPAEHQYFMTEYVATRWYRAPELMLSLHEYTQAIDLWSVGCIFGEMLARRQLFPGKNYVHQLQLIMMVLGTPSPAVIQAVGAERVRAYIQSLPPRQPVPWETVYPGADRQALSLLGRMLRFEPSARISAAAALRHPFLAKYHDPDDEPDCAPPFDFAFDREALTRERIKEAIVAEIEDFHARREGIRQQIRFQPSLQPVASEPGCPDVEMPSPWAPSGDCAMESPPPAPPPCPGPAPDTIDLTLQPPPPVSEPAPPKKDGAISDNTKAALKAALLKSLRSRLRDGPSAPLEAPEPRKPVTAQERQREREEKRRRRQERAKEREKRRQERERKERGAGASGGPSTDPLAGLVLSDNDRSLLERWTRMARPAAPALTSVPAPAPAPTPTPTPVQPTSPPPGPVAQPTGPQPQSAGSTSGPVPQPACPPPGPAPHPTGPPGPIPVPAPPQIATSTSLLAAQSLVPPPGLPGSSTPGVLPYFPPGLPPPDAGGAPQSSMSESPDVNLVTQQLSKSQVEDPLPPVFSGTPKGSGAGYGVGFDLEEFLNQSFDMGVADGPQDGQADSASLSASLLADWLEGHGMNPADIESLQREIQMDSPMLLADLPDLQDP
Protocol: as §1

[6] = target: Vascular endothelial growth factor receptor 3 (Homo sapiens, UniProt P35916)
Chain of Vascular endothelial growth factor receptor 3 (P35916 whole entry): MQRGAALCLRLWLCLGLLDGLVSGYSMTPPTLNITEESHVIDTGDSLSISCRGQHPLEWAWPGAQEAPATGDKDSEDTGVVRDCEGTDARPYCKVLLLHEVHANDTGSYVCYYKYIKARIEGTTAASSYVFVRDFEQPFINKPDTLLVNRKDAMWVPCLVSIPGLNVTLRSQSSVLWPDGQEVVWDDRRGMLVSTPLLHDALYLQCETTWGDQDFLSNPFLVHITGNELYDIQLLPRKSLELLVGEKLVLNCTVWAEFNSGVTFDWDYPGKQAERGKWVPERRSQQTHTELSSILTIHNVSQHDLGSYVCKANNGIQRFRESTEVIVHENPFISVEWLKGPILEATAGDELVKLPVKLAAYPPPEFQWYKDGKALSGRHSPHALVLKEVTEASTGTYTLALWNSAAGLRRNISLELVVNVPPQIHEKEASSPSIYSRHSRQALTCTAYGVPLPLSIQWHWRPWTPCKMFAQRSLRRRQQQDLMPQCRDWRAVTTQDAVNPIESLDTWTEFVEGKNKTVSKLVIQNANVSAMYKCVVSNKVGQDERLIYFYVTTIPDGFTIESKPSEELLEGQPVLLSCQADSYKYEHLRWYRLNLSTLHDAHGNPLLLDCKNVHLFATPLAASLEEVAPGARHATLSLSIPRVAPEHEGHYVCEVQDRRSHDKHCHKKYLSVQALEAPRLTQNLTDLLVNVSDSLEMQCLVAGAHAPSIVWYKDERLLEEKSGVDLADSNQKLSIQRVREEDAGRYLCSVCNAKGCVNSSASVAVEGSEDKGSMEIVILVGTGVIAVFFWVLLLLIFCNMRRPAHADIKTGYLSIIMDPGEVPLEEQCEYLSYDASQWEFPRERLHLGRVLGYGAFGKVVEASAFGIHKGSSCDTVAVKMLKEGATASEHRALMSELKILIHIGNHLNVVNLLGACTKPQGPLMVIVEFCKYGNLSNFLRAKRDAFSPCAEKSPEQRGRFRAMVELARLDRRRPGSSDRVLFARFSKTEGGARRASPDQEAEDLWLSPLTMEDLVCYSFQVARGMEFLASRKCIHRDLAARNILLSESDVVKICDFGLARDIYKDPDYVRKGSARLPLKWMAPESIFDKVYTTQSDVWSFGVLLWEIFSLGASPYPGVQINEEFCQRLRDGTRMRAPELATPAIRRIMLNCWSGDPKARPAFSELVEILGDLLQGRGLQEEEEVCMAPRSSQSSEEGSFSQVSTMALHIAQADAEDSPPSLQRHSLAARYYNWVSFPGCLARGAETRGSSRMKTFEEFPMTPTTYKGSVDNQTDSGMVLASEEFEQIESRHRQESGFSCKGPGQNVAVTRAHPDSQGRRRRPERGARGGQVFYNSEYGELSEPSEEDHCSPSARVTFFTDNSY
Protocol: as §1

[7] = target: Platelet-derived growth factor receptor beta (Homo sapiens, UniProt P09619)
Protocol: as §1

[8] = target: Fibroblast growth factor receptor 1 (Homo sapiens, UniProt P11362)
Protocol: as §1

[9] = target: Vascular endothelial growth factor receptor 1 (Homo sapiens, UniProt P17948)
Protocol: as §1

[10] = target: Mast/stem cell growth factor receptor Kit (Homo sapiens, UniProt P10721)
Chain of Mast/stem cell growth factor receptor Kit (P10721 whole entry): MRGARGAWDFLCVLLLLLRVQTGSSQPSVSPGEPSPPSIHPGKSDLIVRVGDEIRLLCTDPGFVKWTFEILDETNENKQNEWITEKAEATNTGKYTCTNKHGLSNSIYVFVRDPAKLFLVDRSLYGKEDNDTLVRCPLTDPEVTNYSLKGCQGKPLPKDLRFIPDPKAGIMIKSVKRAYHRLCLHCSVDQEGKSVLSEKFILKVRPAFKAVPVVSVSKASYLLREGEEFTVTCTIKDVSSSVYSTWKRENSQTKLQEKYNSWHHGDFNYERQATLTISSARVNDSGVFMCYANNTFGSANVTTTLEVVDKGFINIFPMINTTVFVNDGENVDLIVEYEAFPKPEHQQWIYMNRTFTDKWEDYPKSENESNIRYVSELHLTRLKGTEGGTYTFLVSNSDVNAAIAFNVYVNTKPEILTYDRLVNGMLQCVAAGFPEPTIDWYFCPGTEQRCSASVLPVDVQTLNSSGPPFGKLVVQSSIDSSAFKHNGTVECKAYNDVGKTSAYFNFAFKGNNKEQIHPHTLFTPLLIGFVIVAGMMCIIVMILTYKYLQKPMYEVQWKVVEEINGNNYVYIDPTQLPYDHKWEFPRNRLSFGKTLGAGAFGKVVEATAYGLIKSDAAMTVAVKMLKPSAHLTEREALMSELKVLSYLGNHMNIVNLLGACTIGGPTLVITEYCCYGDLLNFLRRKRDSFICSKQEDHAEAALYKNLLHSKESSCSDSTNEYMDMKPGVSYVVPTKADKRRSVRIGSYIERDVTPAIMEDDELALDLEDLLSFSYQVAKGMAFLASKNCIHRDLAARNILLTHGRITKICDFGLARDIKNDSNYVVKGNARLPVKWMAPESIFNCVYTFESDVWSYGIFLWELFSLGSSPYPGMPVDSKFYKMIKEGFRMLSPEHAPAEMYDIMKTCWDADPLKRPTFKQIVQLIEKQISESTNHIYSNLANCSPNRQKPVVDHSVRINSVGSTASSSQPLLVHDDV
Protocol: as §1

[11] = target: Fibroblast growth factor receptor 4 (Homo sapiens, UniProt P22455)
Chain of Fibroblast growth factor receptor 4 (P22455 whole entry): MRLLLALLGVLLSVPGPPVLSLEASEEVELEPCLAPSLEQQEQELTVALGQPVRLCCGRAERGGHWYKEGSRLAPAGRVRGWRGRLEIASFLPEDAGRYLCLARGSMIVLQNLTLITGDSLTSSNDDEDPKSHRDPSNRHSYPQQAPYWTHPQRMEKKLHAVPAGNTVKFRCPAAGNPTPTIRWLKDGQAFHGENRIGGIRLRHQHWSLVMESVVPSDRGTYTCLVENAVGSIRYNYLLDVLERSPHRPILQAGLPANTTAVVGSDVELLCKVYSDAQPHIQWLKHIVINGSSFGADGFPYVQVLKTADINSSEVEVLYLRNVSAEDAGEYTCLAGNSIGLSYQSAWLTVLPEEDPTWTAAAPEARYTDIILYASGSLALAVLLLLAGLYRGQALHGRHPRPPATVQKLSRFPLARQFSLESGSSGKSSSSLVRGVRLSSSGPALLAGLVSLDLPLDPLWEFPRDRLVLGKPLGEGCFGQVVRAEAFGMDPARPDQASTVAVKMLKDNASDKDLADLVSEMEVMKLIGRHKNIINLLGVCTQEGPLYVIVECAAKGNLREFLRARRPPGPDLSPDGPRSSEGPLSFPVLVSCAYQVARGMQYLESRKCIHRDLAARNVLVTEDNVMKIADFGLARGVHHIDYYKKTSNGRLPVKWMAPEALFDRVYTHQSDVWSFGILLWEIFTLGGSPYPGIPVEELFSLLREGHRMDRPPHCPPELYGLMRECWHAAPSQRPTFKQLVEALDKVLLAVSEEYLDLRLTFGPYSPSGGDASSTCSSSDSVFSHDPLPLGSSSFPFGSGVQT
Protocol: as §1

[12] = target: Fibroblast growth factor receptor 2 (Homo sapiens, UniProt P21802)
Protocol: as §1

- Kd [1]: 470 nM
- Kd [2]: 2300 nM
- Kd [3]: 5.4 nM
- Kd [4]: 1400 nM
- Kd [5]: 130 nM
- Kd [6]: 340 nM
- Kd [7]: 480 nM
- Kd [8]: 3.1 nM
- Kd [9]: 49 nM
- Kd [10]: 250 nM
- Kd [11]: 280 nM
- Kd [12]: 5.6 nM
SMILES: CCNCCCCNc1ncc2c(n1)N(Cc1cccc(NC(=O)CC)c1)C(=O)N(c1c(Cl)c(OC)cc(OC)c1Cl)C2 [FRIN-1]
